Assay results: PubChem BioAssay (NCI)
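48-hour exposure; five concentrations; linearly interpolated endpoints. At the TGI there is no net growth.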

Columns and labels:
Assay in all cases: growth of human tumour cells (NCI), 48 h
[1] = tested on: IGROV1 ovarian
[2] = tested on: MCF7 breast
[3] = tested on: MDA-MB-231 breast
[4] = tested on: MDA-MB-435
[5] = tested on: NCI-H226 lung
[6] = tested on: NCI-H23 lung
[7] = tested on: NCI/ADR-RES ovarian
[8] = tested on: OVCAR-3 ovarian
[9] = tested on: OVCAR-4 ovarian
[10] = tested on: OVCAR-8 ovarian
[11] = tested on: SF-539 CNS
[12] = tested on: SK-MEL-28 melanoma
[13] = tested on: SN12C renal
[14] = tested on: SNB-75 CNS
[15] = tested on: T-47D breast
[16] = tested on: TK-10 renal
[17] = tested on: U251 CNS
[18] = tested on: UACC-62 melanoma
[19] = tested on: A498 renal
[20] = tested on: BT-549 breast

Measured: TGI

CC(=O)Oc1ccn2nc(C)c(Cc3c(C)nn4ccc(OC(C)=O)cc34)c2c1
> 10 µM: [2]
50.4 µM: [4]
not listed: [19] | [20]
> 100 µM: all other assays above

CCN(CC)C(=O)C1=C(C)NC(C)=C(C(=O)N(CC)CC)C1
93.4 µM: [14]
not listed: [5] | [7] | [10] | [20]
> 100 µM: all other assays above

COc1ccc(C2Cc3cc(OC)c(OC)c(OC)c3C2=O)cc1 (stereo not given)
not listed: [2] | [3] | [4] | [7] | [15] | [20]
> 100 µM: all other assays above

Cc1cc(=O)[nH]c(CNC(=O)c2cccc3ccccc23)n1
not listed: [2] | [3] | [4] | [7] | [15] | [20]
> 100 µM: all other assays above

CN(C)c1ccc(/C=C2\C[C@H]3[C@@H]4CCC5=CC(=O)CC[C@]5(C)[C@H]4CC[C@]3(C)C2=O)cc1
85.6 µM: [17]
not listed: [4]
> 100 µM: all other assays above

O=C1CCCCC1C1(O)C(=O)Nc2cc(F)ccc21 (stereo not given)
not listed: [2] | [3] | [4] | [7] | [8] | [15] | [20]
> 100 µM: all other assays above

CSc1sc(C)cc1-c1nsc(=O)o1
> 100 µM: [19] | [1] | [2] | [4] | [6] | [7] | [9] | [12] | [13] | [17] | [18]

O=S1(=O)COc2ccccc2-c2ncncc21
not listed: [2] | [3] | [4] | [7] | [15] | [20]
> 100 µM: all other assays above

CCOC(=O)CSc1[nH]c2nc(C)nc(Cl)c2c1C#N
not listed: [5] | [7] | [8] | [11] | [17] | [19] | [20]
> 10 µM: all other assays above

C/C(Sc1ccccc1)=C1/CCCN(Cc2ccccc2)C1
38.8 µM: [8]
33.5 µM: [15]
74.1 µM: [7]
87.7 µM: [4]
86.3 µM: [14]
83 µM: [12]
57.5 µM: [2]
76.5 µM: [3]
47.6 µM: [18]
60.4 µM: [16]
41.6 µM: [5]
79.5 µM: [6]
57.8 µM: [17]
not listed: [13] | [20]
> 100 µM: all other assays above

O=C(CC(=O)C(=O)CC(=O)OCc1ccccc1)OCc1ccccc1
not listed: [2] | [3] | [4] | [5] | [7] | [8] | [15] | [20]
> 100 µM: all other assays above

Cc1cc(=O)cc2sc3cc(Cl)ccc3nc1-2
31.9 µM: [8]
50.3 µM: [13]
69.2 µM: [12]
15.7 µM: [14]
44.6 µM: [10]
42.8 µM: [6]
53.8 µM: [16]
45.4 µM: [19]
> 85.4 µM: [9]
20.9 µM: [18]
65.6 µM: [5]
52 µM: [1]
33.9 µM: [17]
26.1 µM: [11]

CC(C)CC(=O)N1CCN(C(=O)CC(C)C)c2ccccc21
> 100 µM: [19] | [1] | [6] | [8] | [10] | [11] | [12] | [14] | [16] | [17]

CC(=O)OC[C@@]12CC[C@H]3C(C)(C)CCC[C@]3(C)[C@H]1C[C@@H](C1=CC(=O)O[C@H]1O)O2
11.2 µM: [2]
13.7 µM: [10]
16.1 µM: [7]
5.01 µM: [6]
4.36 µM: [12]
12.4 µM: [13]
3.99 µM: [8]
5.28 µM: [11]
4.74 µM: [18]
12 µM: [16]
8.67 µM: [15]
5.78 µM: [1]
4.6 µM: [4]

N#Cc1ccc(Nc2cnc3cc(N)ccc3n2)cc1
not listed: [1] | [2] | [3] | [4] | [7] | [15] | [19] | [20]
> 100 µM: all other assays above

Fc1ccc(C2(CCCN3CCc4[nH]c5cc(F)ccc5c4C3)OCCO2)cc1
38.6 µM: [5]
26.5 µM: [4]
28.9 µM: [19]
35 µM: [3]
25.5 µM: [11]
28.1 µM: [16] | [17]
25.6 µM: [12]
31.6 µM: [13]
30.4 µM: [15]
35.4 µM: [1]
25.1 µM: [14]
33.9 µM: [10]
> 100 µM: [7]
26.7 µM: [9] | [18]
31.7 µM: [6]
25.3 µM: [2]

CCC(C)[C@H]1C(=O)N=C(N)N1C(=O)OCc1ccccc1 (stereo not given in full)
not listed: [11] | [15]
> 100 µM: all other assays above

CC(=O)N(/N=C\c1ccc([N+](=O)[O-])cc1)c1ccccc1
not listed: [2] | [3] | [4] | [7] | [15] | [20]
> 100 µM: all other assays above

CC(=O)NC(ON1C(=O)COc2ccccc21)C(Cl)(Cl)Cl (stereo not given)
88.1 µM: [5]
not listed: [2] | [3] | [4] | [7] | [15] | [19] | [20]
> 100 µM: all other assays above

CN(C)C(=O)c1nnsc1NN=O
not listed: [11] | [16] | [19] | [20]
> 100 µM: all other assays above

COC1=C(C)C(=O)C2C(C1=O)C(c1ccc(OC)c(OC)c1)[C@H]2C (stereo not given in full)
not listed: [2] | [3] | [4] | [7] | [13] | [15] | [20]
> 100 µM: all other assays above

CCCCCCCCCCCCCCCCc1c(C(=O)OC)[nH]c(=S)[nH]c1=O
not listed: [2] | [3] | [4] | [5] | [7] | [15] | [20]
> 50 µM: all other assays above

NS(=O)(=O)c1cc(S(N)(=O)=O)c(NC(=O)Nc2ccc(Cl)c(Cl)c2)c(Cl)c1Cl
not listed: [11] | [14] | [15] | [19]
> 100 µM: all other assays above

Cc1ccc(/C=C/C(=O)c2sc(C(N)=S)nc2C)cc1
not listed: [2] | [3] | [4] | [7] | [9] | [15] | [20]
> 100 µM: all other assays above

Nn1c(-c2ccccc2Nc2ccccc2-c2n[nH]c(=S)n2N)n[nH]c1=S
not listed: [3] | [13] | [15] | [19]
> 50 µM: all other assays above

C=CC1(c2ccc(Cl)c(Cl)c2)OCCO1
55.2 µM: [14]
3.48 µM: [3]
not listed: [11] | [19] | [20]
> 100 µM: all other assays above

Cn1nc(-c2ccccc2)c(C(=O)/C=C/c2ccccc2)c(N2CCCCC2)c1=O
> 100 µM: [1] | [6] | [10] | [11] | [13] | [16] | [17] | [18]
62.8 µM: [12]

CSc1nc2nc(C)c(C)nc2c(=O)[nH]1
not listed: [2] | [3] | [4] | [5] | [7] | [11] | [15] | [20]
> 100 µM: all other assays above

NC(=O)ON=C1CCN(Cc2ccccc2)CC1
not listed: [20]
> 100 µM: all other assays above

COc1ccc(NC(=O)CSc2nnc(Cc3ccccc3)o2)cc1
not listed: [2] | [3] | [4] | [7] | [15] | [20]
> 100 µM: all other assays above

CC(C)N(CCCNc1c2ccccc2nc2cccc([N+](=O)[O-])c12)C(C)C
< 0.01 µM: [3] | [12]
< 0.0183 µM: [6]
0.0433 µM: [19]
< 0.018 µM: [4]
0.103 µM: [9]
3.68 µM: [7]
< 0.0437 µM: [11]
< 0.0467 µM: [10]
0.149 µM: [14]
13.2 µM: [2]
< 0.0365 µM: [17]
0.325 µM: [5]
< 0.0442 µM: [20]

Nc1ccccc1S(=O)c1ccccc1 (stereo not given)
not listed: [2] | [3] | [4] | [7] | [15] | [20]
> 100 µM: all other assays above
